Patent publication US5432160A, “Nutrient composition” (Kyowa Hakko Kohyo Co., Ltd., priority 1993, dated 1995)
Peptide text beside a SMILES is read from it.

What was measured:
Type in all cases: physicochemical
[1] = Heat stability: residual rate after heat sterilization in an autoclave; conditions: aqueous 10 mM solution, pH 6.5, autoclave 120° C.
Experimental: Each of aqueous 10 mM solutions of β-alanyl-L-glutamine, L-alanyl-L-glutamine (control) and L-glutamine (control) adjusted at pH 6.5 with sodium hydroxide was heated in an autoclave at 120° C. for a period of 20 minutes or 120 minutes. The residual rate of each of the compounds after heating was determined.

[2] = Solubility: maximum amount dissolved in 1 liter of water; conditions: 25° C.
Experimental: Each of β-alanyl-L-glutamine, L-alanyl-L-glutamine (control) and L-glutamine (control) was dissolved into 1 liter of water (25° C.). Each of their maximum amounts dissolved in the water was determined.

[3] = Heat stability: residual rate after heat sterilization in an autoclave; conditions: aqueous 10 mM solution, pH 6.5, autoclave 120° C., 20 minutes

Residual Rate after Heat Sterilization 20 min. [1]	Residual Rate after Heat Sterilization 20 min. ([1]; listed as L-alanyl-L-glutamine)	Residual Rate after Heat Sterilization 120 min. [1]	Amount Dissolved in 1 liter of Water [2]	Residual Rate after Heat Sterilization 120 min. ([1]; listed as L-glutamine)	Share decomposed after heating [3]	Amount Dissolved in 1 liter of Water ([2]; listed as β-alanyl-L-glutamine)	Structure (SMILES)	Residual Rate after Heat Sterilization 20 min. ([1]; listed as β-alanyl-L-glutamine)
98%	partly decomposed	91%	599 g	–	–	–	C[C@H](N)C(=O)N[C@@H](CCC(N)=O)C(=O)O [L-Alanyl-L-glutamine, L-alanyl-L-glutamine] (H-Ala-Gln-OH)	–
9%	–	0%	43 g	decomposed completely	about 90%	–	NC(=O)CC[C@H](N)C(=O)O [L-Glutamine, L-glutamine]	–
100%	–	99%	952 g	–	–	highest solubility	NCCC(=O)N[C@@H](CCC(N)=O)C(=O)O [β-Alanyl-L-glutamine, β-alanyl-L-glutamine]	remained entirely without being decomposed
